Results: patent US11377442B2, “Small molecule agonists and antagonists of NR2F6 activity” (ZANDER THERAPEUTICS, INC., priority 2016, dated 2022)
Where two headings read alike, the source gives them in different places.

Molecular target: T1, NR2F6 (Homo sapiens, UniProt P10588)
T1 construct: expressed in transfected cells; also transient transfection
T1 sequence (P10588 1-404): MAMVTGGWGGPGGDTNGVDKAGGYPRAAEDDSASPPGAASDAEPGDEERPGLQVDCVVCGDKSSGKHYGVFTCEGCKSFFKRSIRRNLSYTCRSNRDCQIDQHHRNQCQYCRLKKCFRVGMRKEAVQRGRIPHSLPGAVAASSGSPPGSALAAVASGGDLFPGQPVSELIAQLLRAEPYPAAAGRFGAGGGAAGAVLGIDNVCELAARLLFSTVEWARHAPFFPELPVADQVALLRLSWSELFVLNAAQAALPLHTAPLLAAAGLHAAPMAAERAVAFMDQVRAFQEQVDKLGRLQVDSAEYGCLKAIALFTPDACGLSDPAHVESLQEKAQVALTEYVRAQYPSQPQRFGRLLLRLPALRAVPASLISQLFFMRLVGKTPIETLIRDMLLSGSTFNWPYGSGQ
Assay: NR2F6 agonist screening, Firefly signal cmpd/DMSO
Format: cell-based
Set-up: Firefly NR2F6 full length, cmpd/DMSO (mean) / Firefly F4, cmpd/DMSO (mean): unit of the concentration uncertain
Conditions: for Firefly/Renilla (NR2F6 stable, clone F4): ratio Firefly/Renilla; for Firefly, NR2F6 stable (clone F4)/pGL4: ratio of Firefly in NR2F6 stable clone F4 to pGL4

[1] = C11 analogs follow set (Tables 2-10), repeat 1
[2] = C11 analogs follow set (Tables 2-10), repeat 2
[3] = Concentration 2 (unit uncertain)
[4] = Concentration 10 (unit uncertain)
[5] = Concentration 40 (unit uncertain)

COc1cc(NC(=O)c2ccc3oc(=O)c(S(=O)(=O)c4ccc(Cl)cc4)cc3c2)cc(OC)c1 [Compound C133]
Firefly, cmpd/DMSO repeat 1 [1]: 2.1 | Firefly, cmpd/DMSO repeat 2 [2]: 4.3

COc1ccc2cc(S(=O)(=O)c3ccc(OC)c(OC)c3)c(=O)oc2c1 [Compound C274]
Firefly, cmpd/DMSO repeat 1 [1]: 3.3 | Firefly, cmpd/DMSO repeat 2 [2]: 3.5

O=c1oc2ccc(F)cc2cc1S(=O)(=O)c1ccc(F)cc1 [Compound C213]
Firefly, cmpd/DMSO repeat 1 [1]: 14.0 | Firefly, cmpd/DMSO repeat 2 [2]: 13.6 | Firefly/Renilla (NR2F6 stable, clone F4) (Table 13): 1.6 | Firefly, NR2F6 stable (clone F4)/pGL4 (Table 13): 9.6 | Firefly, cmpd/DMSO repeat 1 (Table 13, repeat 1): 14.0 | Firefly, cmpd/DMSO repeat 2 (Table 13, repeat 2): 13.6

COc1ccccc1-c1noc(Cn2nccc(Cl)c2=O)n1 [Compound Z134]
Firefly, cmpd/DMSO (mean): 1.1

Cc1cccc(NC(=O)c2ccc3oc(=O)c(S(=O)(=O)c4ccc(Cl)cc4)cc3c2)c1 [Compound C173]
Firefly, cmpd/DMSO repeat 1 [1]: 9.8 | Firefly, cmpd/DMSO repeat 2 [2]: 6.9

COc1cccc2cc(S(=O)(=O)c3cc(C)cc(C)c3)c(=O)oc12 [Compound C227]
Firefly, cmpd/DMSO repeat 1 (Table 9, repeat 1): 1.0 | Firefly, cmpd/DMSO repeat 2 (Table 9, repeat 2): 1.3

COc1ccc(OC)c(S(=O)(=O)NCc2nc3nc(C)cc(C)n3n2)c1 [Compound E4]
Firefly F4, cmpd/DMSO (mean) [3]: 0.9 | Firefly NR2F6 full length, cmpd/DMSO (mean) [3]: 1.1 | Firefly F4, cmpd/DMSO (mean) [4]: 0.9 | Firefly NR2F6 full length, cmpd/DMSO (mean) [4]: 1.0 | Firefly F4, cmpd/DMSO (mean) [5]: 0.8 | Firefly NR2F6 full length, cmpd/DMSO (mean) [5]: 1.0

CCOc1cccc2cc(S(=O)(=O)c3ccc(F)c(Cl)c3)c(=O)oc12 [Compound C251]
Firefly, cmpd/DMSO repeat 1 (Table 9, repeat 1): 2.1 | Firefly, cmpd/DMSO repeat 2 (Table 9, repeat 2): 1.9

COc1cccc2cc(S(=O)(=O)c3ccc(C)c(C)c3)c(=O)oc12 [Compound C242]
Firefly, cmpd/DMSO repeat 1 (Table 9, repeat 1): 1.1 | Firefly, cmpd/DMSO repeat 2 (Table 9, repeat 2): 1.1

COc1ccc2cc(S(=O)(=O)c3cccc(Cl)c3)c(=O)oc2c1 [Compound C281]
Firefly, cmpd/DMSO repeat 1 [1]: 3.0 | Firefly, cmpd/DMSO repeat 2 [2]: 4.4

COc1ccc(NC(=O)c2ccc3oc(=O)c(S(=O)(=O)c4ccccc4)cc3c2)cc1 [Compound C177]
Firefly, cmpd/DMSO repeat 1 [1]: 17.4 | Firefly, cmpd/DMSO repeat 2 [2]: 8.2 | Firefly/Renilla (NR2F6 stable, clone F4) (Table 12): 2.3 | Firefly, NR2F6 stable (clone F4)/pGL4 (Table 12): 8.5 | Firefly, cmpd/DMSO repeat 1 (Table 12, repeat 1): 17.4 | Firefly, cmpd/DMSO repeat 2 (Table 12, repeat 2): 8.2

COc1ccc2cc(S(=O)(=O)c3ccc(Cl)c(Cl)c3)c(=O)oc2c1 [Compound C272]
Firefly, cmpd/DMSO repeat 1 [1]: 4.5 | Firefly, cmpd/DMSO repeat 2 [2]: 3.1

O=c1oc2c(F)cc(F)cc2cc1S(=O)(=O)c1ccc(Br)cc1 [Compound C290]
Firefly, cmpd/DMSO repeat 1 (Table 11, repeat 1): 13.8 | Firefly, cmpd/DMSO repeat 2 (Table 11, repeat 2): 14.6

COc1ccc2cc(S(=O)(=O)c3cc(C)cc(C)c3)c(=O)oc2c1 [Compound C260]
Firefly, cmpd/DMSO repeat 1 [1]: 1.0 | Firefly, cmpd/DMSO repeat 2 [2]: 1.0

COc1ccc2oc(=O)c(S(=O)(=O)c3ccccc3)cc2c1 [Compound C206]
Firefly, cmpd/DMSO repeat 1 [1]: 2.1 | Firefly, cmpd/DMSO repeat 2 [2]: 1.8

O=c1oc2ccc(Br)cc2cc1S(=O)(=O)c1cc(F)cc(F)c1 [Compound C193]
Firefly, cmpd/DMSO repeat 1 [1]: 1.8 | Firefly, cmpd/DMSO repeat 2 [2]: 1.9

COc1cccc2cc(S(=O)(=O)c3ccc(C(C)C)cc3)c(=O)oc12 [Compound C241]
Firefly, cmpd/DMSO repeat 1 (Table 9, repeat 1): 2.1 | Firefly, cmpd/DMSO repeat 2 (Table 9, repeat 2): 2.7

O=C(Nc1ccc(Cl)cc1)c1ccc2oc(=O)c(S(=O)(=O)c3ccc(F)cc3)cc2c1 [Compound C129]
Firefly, cmpd/DMSO repeat 1 [1]: 0.9 | Firefly, cmpd/DMSO repeat 2 [2]: 1.2

CCOC(=O)c1cnc2c(C)cc(C)cc2c1NCCCN(C)C [Compound D28]
Firefly, cmpd/DMSO (mean) (mean of repeats): 12.8 | Firefly, cmpd repeat 1 (raw signal, repeat 1): 784 | Firefly, cmpd repeat 2 (raw signal, repeat 2): 644 | Firefly, cmpd/DMSO repeat 1 (repeat 1): 14.1 | Firefly, cmpd/DMSO repeat 2 (repeat 2): 11.7

Cc1ccc(CNC(=O)c2ccc3oc(=O)c(S(=O)(=O)c4ccc(Cl)cc4)cc3c2)cc1 [Compound C116]
Firefly, cmpd/DMSO repeat 1 [1]: 8.6 | Firefly, cmpd/DMSO repeat 2 [2]: 9.0

Cc1ccc(S(=O)(=O)c2cc3cc(C(=O)Nc4cccc(C)c4)ccc3oc2=O)cc1 [Compound C171]
Firefly, cmpd/DMSO repeat 1 [1]: 6.4 | Firefly, cmpd/DMSO repeat 2 [2]: 4.2
